Results: patent US8362067B2, “3-aminoalkyl-1,3-dihydro-2H-indol-2-one derivatives, preparation thereof and therapeutic use thereof” (Sanofi, priority 2008, dated 2013)

Columns and labels:
human V1a receptors = human V1a receptors (Homo sapiens, UniProt P37288); assay: Measurement of intracellular calcium (FLIPR) on cells expressing human V1a receptors; format: cell-based; details: blocking the pharmacological effects brought about by arginine-vasopressin (FLIPR and platelet aggregation tests)
Method: The agonist or antagonist nature of the compounds is determined in vitro in a test for the measurement of intracellular calcium (FLIPR) on cells expressing human V1a receptors according to the general technique described in Sullivan et al., Methods Mol. Biol., 1999, 114, 125-133, using 1 μM of Fluo4 AM, and in a test for platelet aggregation induced with AVP on human PRP (platelet-rich plasma) according to the methodology described in J. Clin. Invest., 1993, 92, 224-231. The compounds are preincubated 30 minutes before the addition of the arginine-vasopressin in order to determine the agonist and antagonist properties of these molecules.

[1] = biological target: T1, human uterine oxytocin receptor (Homo sapiens, UniProt P30559); assay: Affinity for oxytocin receptors: displacement of a radioiodinated oxytocin analog; format: binding; details: for IC50: binding, radioiodinated oxytocin analog
T1 construct: expressed in transfected cells
T1 sequence (P30559 1-389): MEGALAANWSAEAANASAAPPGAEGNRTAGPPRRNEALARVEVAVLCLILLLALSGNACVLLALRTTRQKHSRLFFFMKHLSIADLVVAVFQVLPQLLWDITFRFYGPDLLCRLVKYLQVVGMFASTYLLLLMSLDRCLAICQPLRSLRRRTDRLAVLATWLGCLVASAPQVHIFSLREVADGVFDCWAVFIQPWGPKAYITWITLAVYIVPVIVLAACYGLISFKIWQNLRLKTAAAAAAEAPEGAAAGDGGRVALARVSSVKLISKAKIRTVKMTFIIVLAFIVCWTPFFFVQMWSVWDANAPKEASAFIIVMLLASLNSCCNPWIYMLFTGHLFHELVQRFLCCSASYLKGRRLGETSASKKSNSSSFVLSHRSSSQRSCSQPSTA
Method: The affinity of the compounds according to the invention for oxytocin receptors was determined in an in vitro binding test using the method described by J. Elands et al. in Eur. J. Pharmacol., 1987, 147, 197-207. This method consists in studying in vitro the displacement of a radioiodinated oxytocin analog at the oxytocin receptors in a cell membrane preparation transfected with the human uterine oxytocin receptor.
(§1) The comparative pharmacological results of Compounds Nos. 17, 38, 46, 107 and 108 according to the invention with the compounds α and β of the prior art on the various in vitro tests measuring the affinity at human V1a, V1b, V2 and oxytocin receptors are illustrated in the following TABLE XV. The results are expressed by the 50% inhibitory concentration (IC50) expressed on a nanomolar basis (nM).

[2] = biological target: human arginine-vasopressin V1a receptors (Homo sapiens, UniProt P37288); assay: Affinity for human V1a receptors: displacement of [3H]-AVP; format: binding; details: for IC50: binding, displacement of [3H]-AVP; for selectivity for human AVP V1a receptors and for human AVP V1b receptors: versus V2 and/or oxytocin receptors
Method: (§2) The affinity of the compounds of formula (I) according to the invention for arginine-vasopressin V1a receptors was determined in vitro using the method described by M. Thibonnier et al., J. Biol. Chem., 1994, 269, 3304-3310. This method consists in studying in vitro the displacement of tritiated arginine-vasopressin ([^3H]-AVP) at the V1a receptors present on membrane or cell preparations carrying rat or human V1a receptors.
as §1

human V2 receptors = human V2 receptors (Homo sapiens, UniProt P30518); assay: Affinity for vasopressin V2 receptors; format: binding; details: for IC50: binding
Excerpt: The affinity of the compounds of formula (I) according to the invention for vasopressin V2 receptors was also studied (method described by M. Birnbaumer et al. in Nature (Lond.), 1992, 357, 333-335).
as §1

human V1b receptors = biological target: T2, human V1b receptors (Homo sapiens, UniProt P47901); assay: Affinity for human V1b receptors: displacement of [3H]-AVP; details: binding
T2 sequence (P47901 1-424): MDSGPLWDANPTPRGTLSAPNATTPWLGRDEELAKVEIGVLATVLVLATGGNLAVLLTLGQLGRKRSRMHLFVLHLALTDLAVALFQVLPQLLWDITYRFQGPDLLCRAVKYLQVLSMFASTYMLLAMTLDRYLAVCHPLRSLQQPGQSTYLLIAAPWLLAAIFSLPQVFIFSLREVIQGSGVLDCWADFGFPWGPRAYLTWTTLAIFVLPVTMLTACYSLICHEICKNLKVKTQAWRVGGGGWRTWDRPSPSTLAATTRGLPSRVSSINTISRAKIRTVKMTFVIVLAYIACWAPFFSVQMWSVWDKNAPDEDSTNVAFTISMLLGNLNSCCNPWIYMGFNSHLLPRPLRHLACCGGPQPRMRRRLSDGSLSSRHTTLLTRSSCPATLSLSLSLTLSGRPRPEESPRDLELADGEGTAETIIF
Method: as §2, with “V1b” for “V1a”, “Y. de Keyser” for “M. Thibonnier”, “al. in Febs Letters,” for “al., J. Biol. Chem.,”, “356, 215-220.” for “269, 3304-3310.”, “on” for “on membrane or”, “carrying” for “carrying rat or”
as §1

Sequence of human arginine-vasopressin V1a receptors (P37288 whole entry): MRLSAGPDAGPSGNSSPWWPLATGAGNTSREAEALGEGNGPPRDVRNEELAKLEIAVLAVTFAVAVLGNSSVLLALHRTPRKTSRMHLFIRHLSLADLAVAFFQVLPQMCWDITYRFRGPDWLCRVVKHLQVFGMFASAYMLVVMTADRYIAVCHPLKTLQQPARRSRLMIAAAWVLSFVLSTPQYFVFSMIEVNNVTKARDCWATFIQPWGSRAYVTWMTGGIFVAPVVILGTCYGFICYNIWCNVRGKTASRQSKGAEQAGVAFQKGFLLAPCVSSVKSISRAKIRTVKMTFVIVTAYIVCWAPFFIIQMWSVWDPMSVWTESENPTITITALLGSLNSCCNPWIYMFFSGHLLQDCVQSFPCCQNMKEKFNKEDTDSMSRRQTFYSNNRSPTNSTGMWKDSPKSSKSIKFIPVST
Sequence of human V2 receptors (P30518 whole entry): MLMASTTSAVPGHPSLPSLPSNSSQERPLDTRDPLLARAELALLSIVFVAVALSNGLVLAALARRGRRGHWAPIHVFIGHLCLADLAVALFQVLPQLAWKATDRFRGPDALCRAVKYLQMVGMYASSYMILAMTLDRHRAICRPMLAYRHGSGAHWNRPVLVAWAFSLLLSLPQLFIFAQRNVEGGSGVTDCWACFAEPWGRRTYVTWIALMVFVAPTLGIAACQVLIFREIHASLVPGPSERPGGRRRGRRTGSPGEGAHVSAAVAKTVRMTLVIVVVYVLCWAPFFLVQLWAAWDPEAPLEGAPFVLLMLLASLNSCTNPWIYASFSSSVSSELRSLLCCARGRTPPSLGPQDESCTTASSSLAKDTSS
Sequence of human V1a receptors (P37288 whole entry): as the sequence (P37288 whole entry) above

SMILES	agonist or antagonist nature at V1a receptors (human V1a receptors)	melting point [°C]	IC50 [1] [µM]	IC50 [2] [µM]	IC50 (human V2 receptors) [µM]	IC50 (human V1b receptors) [µM]	affinity for oxytocin receptors [1]	affinity for human AVP V1a receptors [2]	selectivity for human AVP V1a receptors and for human AVP V1b receptors [2]	affinity for human AVP V2 receptors (human V2 receptors)
COc1cc2c(cc1Cl)C(CCCN1CCNCC1)(c1ccccc1F)C(=O)N2S(=O)(=O)c1ccc(OC(C)C)cc1.Cl (single isomer, unassigned) [Compound No. 17, 5-Chloro-3-(2-fluorophenyl)-1-[(4-isopropoxyphenyl)sulfonyl]-6-methoxy-3-[3-(piperazin-1-yl)propyl]-1,3-dihydroindol-2-one hydrochloride]	antagonists of V1a receptors	232	0.39	0.0024	0.45	> 1				
COc1cc2c(cc1Cl)C(CCCN1CCN(C)CC1)(c1ccccc1F)C(=O)N2S(=O)(=O)c1ccc(OC(C)C)cc1.Cl (stereo not shown) [Compound No. 13, 5-Chloro-3-(2-fluorophenyl)-1-[(4-isopropoxyphenyl)sulfonyl]-6-methoxy-3-[3-(4-methylpiperazin-1-yl)propyl]-1,3-dihydroindol-2-one hydrochloride]	antagonists of V1a receptors	205								
COc1cccc(S(=O)(=O)N2C(=O)C(CCCN3CCN(C)CC3)(c3ccccc3F)c3cc(Cl)c(OC)cc32)c1 (stereo not shown) [Compound No. 38]			0.5	0.0011	> 1	> 1				
COc1cc2c(cc1Cl)C(CCCN1CCNCC1)(c1ccccc1F)C(=O)N2S(=O)(=O)c1ccc(O)cc1 (stereo not shown) [Compound No. 46]			0.38	0.0024	> 1	0.64				
CCN(CC)C(=O)Nc1ccc(S(=O)(=O)N2C(=O)C(NCCC3CCNCC3)(c3ccccc3Cl)c3cc(Cl)c(Cl)cc32)cc1 (stereo not drawn) [Compound α, 3-[4-[[5,6-dichloro-3-(2-chlorophenyl)-2-oxo-3-[(2-(piperidin-4-yl)ethyl)amino]-2,3-dihydro-1H-indol-1-yl]sulfonyl]phenyl]-1,1-diethylurea, reference compound]							good affinity	good affinity	not selective	good affinity
CCN(CC)C(=O)Nc1ccc(S(=O)(=O)N2C(=O)C(NCCC3CCNCC3)(c3ccccc3Cl)c3cc(Cl)c(C)cc32)cc1 (stereo not drawn) [Compound β, 3-[4-[[5-chloro-3-(2-chlorophenyl)-6-methyl-2-oxo-3-[(2-(piperidin-4-yl)ethyl)amino]-2,3-dihydro-1H-indol-1-yl]sulfonyl]phenyl]-1,1-diethylurea, reference compound]								good affinity	not selective	good affinity
COc1ccc(S(=O)(=O)N2C(=O)C(CCCN3CCNCC3)(c3ccccc3F)c3cc(F)c(OC)cc32)cc1C (stereo not shown) [compound 107]			> 1	0.0085	> 1	0.14				
COc1ccc(S(=O)(=O)N2C(=O)C(CCCN3CCNCC3)(c3ccccc3F)c3cc(OC)c(OC)cc32)cc1C (stereo not shown) [compound 108]			> 1	0.005	> 1	0.32				
